A value given as a limit tells only on which side of the number the result lay.

A word on the IC50: it is the point on the concentration scale where inhibition reaches its midpoint.

One test concerns the target RBP4 (Homo sapiens (Human), UniProt P02753). The test can be described thus: Scintillation proximity RBP4 binding assay (SPA). The conditions noted are these: 10 nM 3H-Retinol, 50 nM biotinylated RBP4. Here is the method:
Scintillation Proximity RBP4 Binding Assay
Untagged human RBP4 purified from urine of tubular proteinuria patients was purchased from Fitzgerald Industries International. It was biotinylated using the EZ-Link Sulfo-NHS-LC-Biotinylation kit from Pierce following the manufacturer's recommendations. Binding experiments were performed in 96-well plates (OptiPlate, PerkinElmer) in a final assay volume of 100 μl per well in SPA buffer (1×PBS, pH 7.4, 1 mM EDTA, 0.1% BSA, 0.5% CHAPS). The reaction mix contained 10 nM ^3H-Retinol (48.7 Ci/mmol; PerkinElmer), 0.3 mg/well Streptavidin-PVT beads, 50 nM biotinylated RBP4 and a test compound. Nonspecific binding was determined in the presence of 20 μM of unlabeled retinol.
The reaction mix was assembled in the dark under dim red light. The plates were sealed with clear tape (TopSeal-A: 96-well microplate, PerkinElmer), wrapped in the aluminum foil, and allowed to equilibrate 6 hours at room temperature followed by overnight incubation at +4° C. Radiocounts were measured using a TopCount NXT counter (Packard Instrument Company).

The target in a further test is RBP4-TTR interaction (Homo sapiens (Human), UniProt P02753). Description: TR-FRET (HTRF) assay for retinol-induced RBP4-TTR interaction. The test is classed as biochemical. The conditions noted are these: in the presence of 1 μM retinol; read-out: HTRF assay for antagonists of RBP4-TTR interaction: IC50. From the text:
TR-FRET Assay for Retinol-Induced RBP4-TTR Interaction
Binding of a desired RBP4 antagonist displaces retinol and induces hindrance for RBP4-TTR interaction resulting in the decreased FRET signal (FIG. 7). Bacterially expressed MBP-RBP4 and untagged TTR were used in this assay. […] Following cell lysis, recombinant RBP4 was purified from the soluble fraction using the ACTA FPLC system (GE Healthcare) equipped with the 5-ml the MBP Trap HP column. Human untagged TTR was purchased from Calbiochem. Untagged TTR was labeled directly with Eu^3+ Cryptate-NHS using the HTRF Cryptate Labeling kit from CisBio following the manufacturer's recommendations. HTRF assay was performed in white low volume 384 well plates (Greiner-Bio) in a final assay volume of 16 μl per well. The reaction buffer contained 10 mM Tris-HCl pH 7.5, 1 mM DTT, 0.05% NP-40, 0.05% Prionex, 6% glycerol, and 400 mM KF. […] Titration of test compounds in this assay was conducted in the presence of 1 μM retinol. All reactions were assembled in the dark under dim red light and incubated overnight at +4° C. wrapped in aluminum foil. TR-FRET signal was measured in the SpectraMax M5e Multimode Plate Reader (Molecular Device). […] The TR-FRET signal was expressed as the ratio of fluorescence intensity: Flu665/Flu620×10,000.
(TR-FRET usually uses a lanthanide donor and a delayed reading to cut background.)

Turning to `COC(=O)N1CCc2[nH]nc(C(=O)N3CCC(c4cccc(F)c4C(F)(F)F)CC3)c2C1` [Compound 68], the values for the IC50 on RBP4 and at RBP4-TTR interaction were less than 1.37 nM and 36.2 nM, respectively.

These data come from patent US10407433B2, “Substituted 4-phenylpiperidines, their preparation and use” (The Trustees of Columbia University in the City of New York, priority 2014, dated 2019).
